Values after ≈ are worked out from the molar mass of the structure shown. Like-named read-outs stand apart in the source and are kept apart here. Starred links: 1 amine or outer side, 2 acyl side, 3 side chain; linkers in the order of their positions; H or OH if unused. Positions of bridges follow the written chain, without caps; N, C: chain ends. Residues, ends and D or L forms follow the SMILES beside them. *: point of attachment. C20 diacid = O=C(O)CCCCCCCCCCCCCCCCCCC(=O)*; γGlu = O=C(O)[C@H](CCC(=O)[*:2])N[*:1]
Assays:
[1] = biological target: T1, human amylin receptor (amylin 3(a) receptor: human calcitonin receptor + RAMP-3) (Homo sapiens, UniProt O60896+P30988); test: Assay (II)a functional CRE-luciferase assay, human amylin receptor; assay type: cell-based; settings: BHK amylin 3(a)-receptor/CRE-luc cells
T1 construct: expressed in transfected cells; host or cells: BHK570
T1 sequence (P30988 25-474): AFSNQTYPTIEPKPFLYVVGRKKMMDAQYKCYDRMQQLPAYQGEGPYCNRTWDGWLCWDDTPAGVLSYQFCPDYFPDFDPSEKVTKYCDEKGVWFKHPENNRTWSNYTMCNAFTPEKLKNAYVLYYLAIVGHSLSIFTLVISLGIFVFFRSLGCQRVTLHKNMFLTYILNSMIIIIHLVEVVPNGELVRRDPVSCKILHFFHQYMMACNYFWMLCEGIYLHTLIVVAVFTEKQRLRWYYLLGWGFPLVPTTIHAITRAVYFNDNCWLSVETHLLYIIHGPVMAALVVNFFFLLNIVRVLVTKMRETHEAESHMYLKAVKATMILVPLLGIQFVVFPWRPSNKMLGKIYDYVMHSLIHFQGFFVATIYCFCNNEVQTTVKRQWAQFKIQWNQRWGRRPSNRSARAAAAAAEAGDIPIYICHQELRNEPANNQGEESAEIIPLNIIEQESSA
T1 sequence (O60896 24-148 partner): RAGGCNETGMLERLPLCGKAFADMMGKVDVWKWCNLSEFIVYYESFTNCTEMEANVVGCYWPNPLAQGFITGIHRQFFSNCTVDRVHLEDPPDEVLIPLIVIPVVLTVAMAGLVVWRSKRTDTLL
Excerpt: (§1) 1. Luciferase Assay Outline
(§2) Activation of calcitonin and amylin (coexpression of calcitonin receptor and receptor activity modifying proteins (RAMP)) receptors lead to increased intracellular concentrations of cAMP. Consequently, transcription is activated by promoters containing multiple copies of the cAMP response element (CRE). It is thus possible to measure amylin activity by the use of a CRE luciferase reporter gene introduced into BHK cells also expressing calcitonin or amylin receptors.
(§3) A BHK570 cell line was stably transfected with the human calcitonin receptor and a CRE-responsive luciferase reporter gene. The cell line was further transfected with RAMP-3, using standard methods. This turns the calcitonin receptor into an amylin 3(a) receptor. Methotrexate, Neomycin, and Hygromycin are selection markers for luciferase, the calcitonin receptor, and RAMP-3, respectively.
(§4) To perform activity assays, BHK calcitonin (a) receptor- or amylin 3(a)-receptor/CRE-luc cells were seeded in white 96 well culture plates at a density of about 20.000 cells/well. […] Further, 50 μl/well of standard or sample in assay buffer were added. After 3 hours incubation at 37° C. and 5% CO2, the assay medium with standard or sample were removed and replaced by 100 μl/well PBS. Further, 100 μl/well LucLite™ was added. The plates were sealed and incubated at room temperature for 30 minutes. Finally, luminescence was measured on a TopCounter (Packard) in SPC (single photon counting) mode.

[2] = biological target: T2, human calcitonin receptor (Homo sapiens, UniProt P30988); test: Assay (II)a functional CRE-luciferase assay, human calcitonin receptor; assay type: cell-based; settings: Table 7; human calcitonin (CTa) receptor
T2 construct: expressed in transfected cells; host or cells: BHK570
T2 sequence (P30988 25-474): T1 sequence (P30988 25-474)
Excerpt: as §1, §2, §3, §4

[3] = Assay (IV) determination of solubility; assay type: physicochemical
Method in brief: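 Stock ~500 nmol/ml in water; 1:1 with 100 mM buffer, pH 3.0–8.0 (glycylglycine ≤5.0, bistrispropane ≥6.0); 18 h RT; spin; HPLC quantitation of soluble polypeptide.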

[4] = bistrispropane buffer, pH 7.5, pH 7.5, read-out: Solubility pH 7.5
[5] = bistrispropane buffer, pH 8, pH 8.0, read-out: Solubility pH 8.0
[6] = glycylglycine buffer, pH 3, pH 3.0, read-out: Solubility pH 3.0
[7] = glycylglycine buffer, pH 4, pH 4.0, read-out: Solubility pH 4.0

Row | SMILES | EC50 ([1]; Table 2) [nM] | EC50 [2] [nM] | solubility at 18 h [3, 4] [µM] | solubility at 18 h [3, 5] [µM] | solubility at 18 h [3, 6] [µM] | solubility at 18 h ([3]; glycylglycine buffer, pH 4, pH 4.0, 18 hours at room temperature, Table 2, read-out: Solubility pH 4.0) [µM] | solubility at 18 h [3, 7] [µM] | solubility at 18 h ([3]; pH 5.0, read-out: Solubility pH 5.0) [µM] | solubility at 18 h ([3]; pH 6.0, read-out: Solubility pH 6.0) [µM] | solubility at 18 h ([3]; pH 6.5, read-out: Solubility pH 6.5) [µM] | solubility at 18 h ([3]; pH 7.0, read-out: Solubility pH 7.0) [µM] | EC50 ([1]; Table 3) [nM] | solubility at 18 h ([3]; bistrispropane buffer, pH 6, pH 6.0, read-out: Solubility pH 6.0) [µM] | solubility at 18 h ([3]; bistrispropane buffer, pH 6.5, pH 6.5, read-out: Solubility pH 6.5) [µM] | solubility at 18 h ([3]; bistrispropane buffer, pH 7, pH 7.0, 18 hours at room temperature, Table 3, read-out: Solubility pH 7.0) [µM] | solubility at 18 h ([3]; bistrispropane buffer, pH 7, pH 7.0, read-out: Solubility pH 7.0) [µM] | solubility at 18 h ([3]; glycylglycine buffer, pH 5, pH 5.0, read-out: Solubility pH 5.0) [µM]
1 | CC[C@H](C)[C@H](NC(=O)[C@@H]1CCCN1C(=O)CNC(=O)[C@H](Cc1ccccc1)NC(=O)[C@H](CC(N)=O)NC(=O)[C@H](CC(N)=O)NC(=O)[C@H](CO)NC(=O)[C@H](CO)NC(=O)[C@H](CCCNC(=N)N)NC(=O)[C@@H](NC(=O)[C@H](CC(C)C)NC(=O)[C@H](Cc1ccccc1)NC(=O)[C@H](CCC(=O)O)NC(=O)[C@H](C)NC(=O)[C@H](CC(C)C)NC(=O)[C@H](CCCNC(=N)N)NC(=O)[C@H](CCC(N)=O)NC(=O)[C@@H](NC(=O)[C@H](C)NC(=O)[C@@H]1CSSC[C@H](NC(=O)[C@H](Cc2cnc[nH]2)NC(=O)CC[C@H](NC(=O)CCCCCCCCCCCCCCCCCCC(=O)O)C(=O)O)C(=O)N[C@@H](CC(N)=O)C(=O)N[C@@H]([C@@H](C)O)C(=O)N[C@@H](C)C(=O)N[C@@H]([C@@H](C)O)C(=O)N1)[C@@H](C)O)C(C)C)C(=O)N[C@@H](CC(C)C)C(=O)N1CCC[C@H]1C(=O)N1CCC[C@H]1C(=O)N[C@H](C(=O)N[C@@H](CC(N)=O)C(=O)N[C@H](C(=O)NCC(=O)N[C@@H](CO)C(=O)N[C@@H](CC(N)=O)C(=O)N[C@H](C(=O)N[C@@H](Cc1ccc(O)cc1)C(N)=O)[C@@H](C)O)C(C)C)[C@@H](C)O [Example 15, N-alpha-[(S)-4-Carboxy-4-(19-carboxynonadecanoylamino)butyryl]-[His1,Glu14,Arg18]-pramlintide] ({C20 diacid-γGlu}-HCNTATCATQRLAEFLVRSSNNFGPILPPTNVGSNTY-NH2; disulfide 2-7) | 0.083 | 0.125 | 56 (≈ 249 µg/mL) | 134 (≈ 596 µg/mL) | > 200 | > 200 | > 200 | 10 (≈ 44.5 µg/mL) | 1 (≈ 4.45 µg/mL) | 1 (≈ 4.45 µg/mL) | 10 (≈ 44.5 µg/mL) |  |  |  |  |  | 
2 | CC[C@H](C)[C@H](NC(=O)[C@@H]1CCCN1C(=O)CNC(=O)[C@H](Cc1ccccc1)NC(=O)[C@H](CO)NC(=O)[C@H](CO)NC(=O)[C@H](CO)NC(=O)[C@H](CO)NC(=O)[C@H](CCCNC(=N)N)NC(=O)[C@H](Cc1c[nH]cn1)NC(=O)[C@H](CC(C)C)NC(=O)[C@H](Cc1ccccc1)NC(=O)[C@H](CCC(=O)O)NC(=O)[C@H](C)NC(=O)[C@H](CC(C)C)NC(=O)[C@H](CCCNC(=N)N)NC(=O)[C@H](CCC(N)=O)NC(=O)[C@@H](NC(=O)[C@H](C)NC(=O)[C@@H]1CSSC[C@H](NC(=O)[C@H](Cc2c[nH]cn2)NC(=O)CC[C@H](NC(=O)CCCCCCCCCCCCCCCCCCC(=O)O)C(=O)O)C(=O)NCC(=O)N[C@@H]([C@@H](C)O)C(=O)N[C@@H](C)C(=O)N[C@@H]([C@@H](C)O)C(=O)N1)[C@@H](C)O)C(=O)N[C@@H](CC(C)C)C(=O)N1CCC[C@H]1C(=O)N1CCC[C@H]1C(=O)N[C@H](C(=O)N[C@@H](CCC(=O)O)C(=O)N[C@H](C(=O)NCC(=O)N[C@@H](CO)C(=O)N[C@@H](CCC(=O)O)C(=O)N[C@H](C(=O)N[C@@H](Cc1ccc(O)cc1)C(N)=O)[C@@H](C)O)C(C)C)[C@@H](C)O [Example 16, N-alpha-[(S)-4-Carboxy-4-(19-carboxynonadecanoylamino)butyryl]-[His1,Gly3,Glu14,His17,Arg18,Ser21,Ser22,Glu31,Glu35]-pramlintide] ({C20 diacid-γGlu}-HCGTATCATQRLAEFLHRSSSSFGPILPPTEVGSETY-NH2; disulfide 2-7 (inferred)) |  | 0.198 | 122 (≈ 537 µg/mL) | 129 (≈ 568 µg/mL) | 179 (≈ 788 µg/mL) |  | 80 (≈ 352 µg/mL) |  |  |  |  | 0.313 | 34 (≈ 150 µg/mL) | 12 (≈ 52.8 µg/mL) | 104 (≈ 458 µg/mL) | 104 (≈ 458 µg/mL) | 1 (≈ 4.4 µg/mL)

— US8722849B2, “Polypeptides” (Novo Nordisk A/S, priority 2011, dated 2014)
